{"source": "patent US4731109A", "about": "“Herbicidal 2-haloacetanilides” (Monsanto Company, priority 1982, dated 1988)", "test_system": "soybeans", "test": "Herbicidal effect in a variety of soil types", "format": "in vivo", "settings": "Table XVII A", "data": [{"compound": "CC(C)OCN(C(=O)CCl)c1ccccc1C(F)(F)F", "note": "[Example 2, N--(isopropoxymethyl)-2'-trifluoromethyl-2-chloroacetanilide]", "values": [{"measurement": "GR15", "setting": "Drummer silty clay", "value": "> 2.2", "unit": "Kg/Ha"}, {"measurement": "GR15", "setting": "Florida muck", "value": "> 2.2", "unit": "Kg/Ha"}, {"measurement": "GR15", "setting": "Florida sand", "value": 1.7, "unit": "Kg/Ha"}, {"measurement": "GR15", "setting": "Ray silt loam", "value": 2.2, "unit": "Kg/Ha"}, {"measurement": "GR15", "setting": "Sarpy silty clay", "value": "> 2.2", "unit": "Kg/Ha"}]}]}
